# Results published in patent US8440628B2, “Medical compositions containing ghrelin” (Daiichi Sankyo Company, Limited, priority 2002, dated 2013).
# Legend:
# [1] = Stability of human ghrelin(1-7)amide in pH-adjusted purified water at 25°C (Example 8); type: physicochemical; conditions: for Peak area ratio to total peak area: 25±2°C
# Description: Human ghrelin(1-7)amide was dissolved in the purified water with about 0.12 μmol/mL (0.1 mg/mL). The pH of this solution was 5.0. This solution was divided into quarter, and one portion was kept alone and the pH values of the remaining three portions were adjusted to pH 1.8 (with 17 mM of hydrochloric acid), pH 4.1 (with 0.05 mM of hydrochloric acid) and pH 7.9 (with 0.20 mM of sodium hydroxide) respectively, by adding with hydrochloric acid or sodium hydroxide aqueous solution.
# These four solutions were stored at 25±2° C. for 1 and 3 day, and after storage, the HPLC analyses of each solutions were conducted to calculate the peak area ratio of human ghrelin(1-7)amide, desacyl human ghrelin(1-7)amide and [3-dehydroalanine]-human ghrelin(1-7)amide to the total peak area.
# [2] = compared with human ghrelin; cited from earlier work
# [3] = Adsorption inhibiting effect of anti-adsorbents on human ghrelin in glass and polypropylene test tubes (Example 9); type: physicochemical; conditions: for Adsorption inhibiting effect: added at 0.01% or 0.1% to human ghrelin 1.0 μg/mL solution; for Human ghrelin concentration of the solution (Initial Conc. = 100): human ghrelin 1.0 μg/mL in 5% mannitol-0.05M glycine hydrochloride buffer (pH 3.5)
# Description: As the anti-adsorbent, the surfactant, that is, polyoxyethylene sorbitan monooleate (hereinafter, referred to as Tween® 80), and benzalkonium chloride were selected.
# The anti-adsorbent was added to this solution with 0.01% or 0.1% concentration.
# The human ghrelin concentrations of each solution were measured by HPLC method right after preparation, and these solutions were replaced in glass test tubes. After that, each solution were further replaced in new glass test tubes, and same operation was repeated for 5 and 10 times, then, the human ghrelin concentrations of each treated solution were measured by HPLC method. As a control, the solution not containing anti-adsorbent was examined.
# Same procedure was repeated by using test tube made by polypropylene instead of glass test tube.
# [4] = human ghrelin(1-7)amide 0.1 mg/mL in purified water adjusted to pH 1.8 with hydrochloric acid, 1 day after
# [5] = human ghrelin(1-7)amide 0.1 mg/mL in purified water adjusted to pH 1.8 with hydrochloric acid, 3 days after
# [6] = human ghrelin(1-7)amide 0.1 mg/mL in purified water adjusted to pH 1.8 with hydrochloric acid, before storage
# [7] = human ghrelin(1-7)amide 0.1 mg/mL in purified water adjusted to pH 4.1 with hydrochloric acid, 1 day after
# [8] = human ghrelin(1-7)amide 0.1 mg/mL in purified water adjusted to pH 4.1 with hydrochloric acid, 3 days after
# [9] = human ghrelin(1-7)amide 0.1 mg/mL in purified water adjusted to pH 4.1 with hydrochloric acid, before storage
# [10] = human ghrelin(1-7)amide 0.1 mg/mL in purified water adjusted to pH 7.9 with sodium hydroxide, 1 day after
# [11] = human ghrelin(1-7)amide 0.1 mg/mL in purified water adjusted to pH 7.9 with sodium hydroxide, 3 days after
# [12] = human ghrelin(1-7)amide 0.1 mg/mL in purified water adjusted to pH 7.9 with sodium hydroxide, before storage
# [13] = human ghrelin(1-7)amide 0.1 mg/mL in purified water, pH 5.0 (not adjusted), 1 day after
# [14] = human ghrelin(1-7)amide 0.1 mg/mL in purified water, pH 5.0 (not adjusted), 3 days after
# [15] = human ghrelin(1-7)amide 0.1 mg/mL in purified water, pH 5.0 (not adjusted), before storage
# [16] = anti-adsorbent 0.01%, Glass tube, replaced 5 times
# [17] = anti-adsorbent 0.01%, Glass tube, replaced 10 times
# [18] = anti-adsorbent 0.01%, Initial Conc.
# [19] = anti-adsorbent 0.01%, Polypropylene tube, replaced 5 times
# [20] = anti-adsorbent 0.01%, Polypropylene tube, replaced 10 times
# [21] = anti-adsorbent 0.1%, Glass tube, replaced 5 times
# [22] = anti-adsorbent 0.1%, Glass tube, replaced 10 times
# [23] = anti-adsorbent 0.1%, Initial Conc.
# [24] = anti-adsorbent 0.1%, Polypropylene tube, replaced 5 times
# [25] = anti-adsorbent 0.1%, Polypropylene tube, replaced 10 times
"Human ghrelin concentration of the solution (Initial Conc. = 100) [3, 16]","Human ghrelin concentration of the solution (Initial Conc. = 100) [3, 17]","Human ghrelin concentration of the solution (Initial Conc. = 100) [3, 18]","Human ghrelin concentration of the solution (Initial Conc. = 100) [3, 19]","Human ghrelin concentration of the solution (Initial Conc. = 100) [3, 20]","Human ghrelin concentration of the solution (Initial Conc. = 100) [3, 21]","Human ghrelin concentration of the solution (Initial Conc. = 100) [3, 22]",Substance,"Peak area ratio to total peak area [1, 4]","Peak area ratio to total peak area [1, 5]","Peak area ratio to total peak area [1, 6]","Peak area ratio to total peak area [1, 7]","Peak area ratio to total peak area [1, 8]","Peak area ratio to total peak area [1, 9]","Peak area ratio to total peak area [1, 10]","Peak area ratio to total peak area [1, 11]","Peak area ratio to total peak area [1, 12]","Peak area ratio to total peak area [1, 13]","Peak area ratio to total peak area [1, 14]","Peak area ratio to total peak area [1, 15]",Adsorption inhibiting effect [3],also measured
–,–,–,–,–,–,–,Human ghrelin(1-7)amide,95.40%,90.11%,98.39%,98.68%,98.60%,98.76%,95.89%,92.54%,98.22%,98.57%,98.51%,98.69%,–,"Production of the degradation products ([1]; aqueous solution of pH 4.1 and 5.0, 25±2°C, up to 3 days): inhibited; Peak area ratio to total peak area ([1]; human ghrelin(1-7)amide 0.1 mg/mL in purified water adjusted to pH 1.8 with hydrochloric acid, 1 day after, listed as human ghrelin(1-7)amide): less than 98%; Peak area ratio to total peak area ([1]; human ghrelin(1-7)amide 0.1 mg/mL in purified water adjusted to pH 7.9 with sodium hydroxide, 1 day after, listed as human ghrelin(1-7)amide): less than 98%; pH of the solution ([1]; human ghrelin(1-7)amide dissolved in purified water, about 0.12 μmol/mL (0.1 mg/mL)): 5.0; Biological activity [2]: same biological activity as human ghrelin"
–,–,–,–,–,–,–,[3-dehydroalanine]-human ghrelin(1-7)amide,0.07%,0.10%,0.02%,0.03%,0.01%,0.00%,0.23%,0.54%,0.03%,0.02%,0.06%,0.00%,–,–
81,64,100,97,96,99,99,benzalkonium chloride,–,–,–,–,–,–,–,–,–,–,–,–,high adsorption inhibiting effect against both glass tube and polypropylene tube,"Human ghrelin concentration of the solution (Initial Conc. = 100) [3, 23]: 100; Human ghrelin concentration of the solution (Initial Conc. = 100) [3, 24]: 99; Human ghrelin concentration of the solution (Initial Conc. = 100) [3, 25]: 101"
–,–,–,–,–,–,–,desacyl human ghrelin(1-7)amide,3.75%,8.89%,0.98%,0.73%,0.77%,0.72%,3.21%,6.21%,1.12%,0.73%,0.79%,0.70%,–,–
17,0,100,90,90,20,5,polyoxyethylene sorbitan monooleate [Tween 80],–,–,–,–,–,–,–,–,–,–,–,–,high adsorption inhibiting effect against polypropylene tube,"Human ghrelin concentration of the solution (Initial Conc. = 100) [3, 23]: 100; Human ghrelin concentration of the solution (Initial Conc. = 100) [3, 24]: 93; Human ghrelin concentration of the solution (Initial Conc. = 100) [3, 25]: 91"
